Article PMC9961652 (International Journal of Molecular Sciences, 2023)
Where two headings read alike, the source gives them in different places.

Experiments:
RhoA = test: RhoA-GTP formation, GST-Rhotekin effector pull-down assay in collagen-stimulated platelets; type: cell-based, human; settings: 20 µM, 2 min pre-incubation; collagen 1 µg/mL for 4 min
Protocol: Next, the ability of the six compounds to suppress RhoA activity in platelets was assessed by subjecting them to a GST (Glutathione-S-transferase)-Rhotekin effector pull-down assay. The compounds were incubated with washed human platelets for 2 min before being stimulated with 1 µg/mL collagen. The analogs inhibited the activation of RhoA at the 20 µM concentration (Figure 2A,B). […] After confirming that these analogs could prevent RhoA activation and the phosphorylation of the MLC, their ability to disrupt complex-formation between RhoA and LARG was tested. […] These findings indicate that the active analogs inhibit RhoA activation by disrupting the binding between RhoA and its GEF.
(A,B) Washed human platelets were incubated with collagen (1 µg/mL) for 4 min, and the levels of RhoA-GTP formation were quantified with a GST-Rhotekin effector pull-down assay. The platelets were pre-incubated with 20 µM UC-177618, UC-177619, UC-177628, UC-177629, […], or […] for 2 min before being stimulated with collagen. The addition of ice-cold lysis buffer terminated the reaction. […] Relative amounts of the GTP-bound form of RhoA were quantified with densitometry measurements of total RhoA (T-RhoA) and normalized to untreated platelets. (C,D) The addition of 20 µM of active Rhosin-related compounds to washed human platelets 2 min before stimulation with collagen blocked the phosphorylation of the myosin light chain (p-MLC). The reactions were terminated after 4 min by adding 4x Laemmli sample buffer. The samples were processed for Western blotting and probed for MLC and p-MLC, and phosphorylation was quantified by measuring the densitometry of total MLC (T-MLC). The differences between DMSO- and Rhosin-related compounds were analyzed with t-test, and the results are shown as means ± SDs of three independent experiments. (* p < 0.05, ** p < 0.01, *** p < 0.001, and **** p < 0.0001).
The relative levels of RhoA-GTP in washed human platelets were quantified with effector domains GST-Rhotekin pull-down assays as previously reported. A volume of 250 µL of washed human platelets (2.5 × 10^8/mL) was pre-warmed to 37 °C along with the compounds or DMSO (0.1%) for 2 min before being stimulated with collagen (1 µg/mL). The reactions were terminated 4 min after collagen stimulation by adding ice-cold lysis buffer (20 mM Tris·HCl (pH 7.6), 100 mM NaCl, 1% Triton X-100, 0.2% Sodium Deoxycholate, 10 mM MgCl2, 1 mM dithiothreitol, 1x protease inhibitor cocktail, and 1x phosphatase inhibitor cocktail). The supernatants were collected and subjected to the GST-Rhotekin pull-down assay. The total cell lysates were also blotted in parallel. GTP-bound RhoA was quantitatively detected with Western blotting using an anti-RhoA antibody. The relative amounts of RhoA were quantified with densitometry measurements and normalized to the untreated platelets.

washed human platelets [1] = test: Wash-out reversibility of inhibition of collagen-induced platelet aggregation; type: cell-based
Protocol: The reversible inhibition of Rhosin in collagen-induced platelet aggregation was assessed with similar wash-out experiments, and this reversible nature of Rhosin makes it a valuable antiplatelet drug candidate (Supporting Information Figure S4A,B). After confirming the structures of the above six active analogs, similar wash-out experiments were performed to compare the reversible function of the active analogs with Rhosin reversibility.

washed human platelets [2] = test: Collagen-induced platelet aggregation, light transmission aggregometry (Born method); type: cell-based; settings: for IC50: Homo sapiens, collagen-induced platelet aggregation, compounds without IC50 determination estimated from percent inhibition at 20 µM, read-out: IC50 (SAR table); for IC50 / activity at 20 µM: Platelet; for activity at 20 µM: compound 20 µM, washed human platelets, means ± SDs of three experiments, 100% = agonist alone
Protocol: Light transmission aggregometry, i.e., the Born method, was used to determine in vitro antiplatelet aggregation activity using collagen as the agonist for platelet aggregation. Collagen was selected as the agonist, since it is the most thrombogenic component of the subendothelial layer. Collagen also serves as a substrate for platelet adhesion and as an inducer of platelet activation.
All experiments using human blood from healthy volunteers were performed according to the protocols approved by the Institutional Review Board at Cincinnati Children’s Hospital Medical Center, Cincinnati, Ohio. Each volunteer was required to sign an informed consent form approved by the IRB. Procedures for drawing human blood, isolating platelet-rich plasma (PRP), and preparing washed platelet suspensions were the same as those previously reported. […] PRP was obtained by means of the centrifugation of blood at 1400 rpm for 15 min at room temperature. PRP was centrifuged at 4000 rpm for 10 min at room temperature, and the platelet pellet was resuspended in HEPES Tyrode’s solution (pH 7.4) without calcium. Platelets were counted using Hemavet 950FS (Drew Scientific, Oxford, CT, USA), and the count was adjusted to 2.5 × 10^8/mL for aggregation studies.
The in vitro antiplatelet activity of the compounds was assayed on washed human platelets using light transmission aggregometry. Platelet aggregation was performed using a 4-channel Lumi-aggregometer (Chronolog, PA, USA) at 37 °C and stirring speed of 900 rpm. A volume of 250 µL of washed human platelets (2.5 × 10^8/mL) was pre-warmed to 37 °C along with the compounds or DMSO (0.1%) for 2 min before the addition of agonists such as collagen, AA, U46619 (a stable synthetic analog of thromboxane A2), ADP, and thrombin. For ATP secretion, platelets were pre-incubated with a luciferin/luciferase kit (Chrono-lume®) for 30 s at 37 °C before the addition of the agonist. The reactions were allowed to proceed for at least 4 min, and the results of platelet aggregation and ATP secretion were determined using Aggrolink software. Platelet aggregation was expressed as the maximum change in the light transmission, where the 100% value corresponded to treatment with the agonist alone. Compounds were evaluated in triplicate at nine compound concentrations ranging from 50 µM to 1 µM.

RhoA-LARG interaction = molecular target: T1, RhoA-LARG interaction (Homo sapiens, UniProt P61586); test: In vitro complex-formation assay of RhoA with LARG DH-PH domain; type: binding; settings: 20 µM; pull-down assay conditions, 4 °C, 1 h
T1 construct: 100 ng of purified full-length RhoA
Protocol: (A) A complex-formation assay tested the inhibitory effects of 20 µM UC-177618 and UC-177619 on RhoA interaction with the LARG DH-PH domain. […] After incubating the compound-RhoA-LARG mixture at 4 °C for 1 h, the beads associated with RhoA were detected with anti-RhoA Western blotting. (B,C) Top view of the predicted structural contacts of UC-177618 and UC-177619 in the binding pocket around the Trp58 residue of RhoA.
(A) A complex-formation assay tested the inhibitory effects of R-G04 and S-G04 on RhoA interaction with the LARG DH-PH domain. MBP-(His)6-tagged LARG (100 ng) was immobilized on Amylose beads. Binding buffer containing full-length RhoA (100 ng) was pre-incubated with different concentrations of R-G04 (25 µM or 50 µM), and S-G04 (5 µM or 10 µM) was added to the beads. After incubating the compound-RhoA-LARG mixture at 4 °C for 1 h, the beads associated with RhoA were detected with anti-RhoA Western blotting. (B) Top view of the predicted structural contacts of R-G04 and S-G04 in the binding pocket around the Trp58 residue of RhoA.
In total, 100 ng of purified MBP (Maltose-binding protein)-(His)6-tagged LARG DH-PH was immobilized on 20 µL of suspended amylose beads (No. E8021S; New England Biolabs Inc., Ipswich, MA, USA) by incubating them in an orbital shaker at 4 °C for 30 min in binding buffer (20 mM Tris·HCl (pH 7.6), 100 mM NaCl, 0.01% Triton X-100, 5mM EDTA, and 5 mM MgCl2). The compounds were added to the binding buffer containing 100 ng of purified full-length RhoA and pre-incubated at 4 °C for 30 min under constant agitation. The Amylose beads bound to LARG were washed thrice with binding buffer to get rid of unbound LARG, and the pre-incubated compound-RhoA mixture was added to the beads. This LARG-compound-RhoA mixture was incubated in the orbital shaker at 4 °C for 1 h. The beads were washed three times, and the amount of RhoA protein co-precipitated with the MBP-fusion-bound beads was detected with anti-RhoA Western blotting.

[3] = read-out: % Platelet Aggregation, Collagen (1 µg/mL)
[4] = read-out: % Platelet Aggregation, Collagen (5 µg/mL)

T1 sequence (P61586 whole entry, the tested form may be a part): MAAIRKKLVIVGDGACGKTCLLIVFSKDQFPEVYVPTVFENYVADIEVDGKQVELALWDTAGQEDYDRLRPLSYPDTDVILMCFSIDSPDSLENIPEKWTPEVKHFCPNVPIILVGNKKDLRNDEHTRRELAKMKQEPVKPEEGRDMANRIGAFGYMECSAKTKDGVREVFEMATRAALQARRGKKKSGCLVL

Row | Compound | RhoA-GTP formation (RhoA) | reversibility of inhibitory effect after wash-out (washed human platelets [1]) | IC50 (washed human platelets [2]) [nM] | activity at 20 µM (washed human platelets [2]; [3]) [%] | activity at 20 µM (washed human platelets [2]; [4]) [%] | LARG binding to RhoA (RhoA-LARG interaction) | activity in collagen-induced platelet aggregation (SAR statement) (washed human platelets [2]; relative to the quinoline analogs)
1 | O=C(NNc1ccnc2c(C(F)(F)F)cccc12)c1ccc(Cl)c(Cl)c1 [UC-177618] | inhibited RhoA-GTP formation | entirely reversible | 1500 | 5 ± 1.7 | 10.2 ± 4.1 | inhibit RhoA-LARG interaction | –
2 | O=C(NNc1ccnc2cc(Cl)ccc12)c1ccc(Cl)c(Cl)c1 [UC-177619] | inhibited RhoA-GTP formation | entirely reversible | 820 | 9.3 ± 3.5 | 12 ± 2.1 | inhibit RhoA-LARG interaction | slightly better potency
